Data on 15 compounds can be found in patent publication US20240408088A1, “PYRAZOLE DERIVATIVE, AND PREPARATION METHOD THEREFOR AND USE THEREOF IN MEDICINE” (Abbisko Therapeutics Co., Ltd., priority 2021, published 2024).

Like-named read-outs stand apart in the source and are kept apart here.

The test system of data set [1] is HCT 116 MTAP knockout cells. In words: Human colon cancer HCT116 cell proliferation inhibition test (MTAP knockout cells, CellTiter-Glo, 6 days). The data set is classed as cell-based. Here is the method:
(§1) • 1. HCT 116 MTAP knockout and MTAP wild-type cells were plated in 96-well flat bottom 5 plates, and cultured overnight with McCoy's 5A medium containing […]+1% penicillin-streptomycin at 37° C. and 5% CO2. • 2. On the next day, the compound was dissolved with DMSO, diluted with DMSO and medium successively and transferred to the cell plate. The final concentration of the compound was 10 μM, the compound was diluted 4 times, with 9 concentration gradients, and DMSO control was added. • 3. Cells that have not been treated with the compound were removed. CellTiter-Glo Luminescent Cell Viability Assay (Promega) was used to detect cell viability, the operation was performed with reference to the package insert of the kit, and then the cell plate was placed on EnVision Multilabel Reader to detect the cold light signal. • 4. Meanwhile, the cell plate treated with the compound was cultured at 37° C. and 5% CO2 for 6 consecutive days. • 5. Then, CellTiter-Glo was also used to detect cell viability. • 6. Finally, the four-parameter dose-response curve module of GraphPad Prism v 9.2.0 software was used to plot the dose-response curve and calculate the IC50 for proliferation inhibition (unit: nM).
(In ATP-based viability assays light output follows the ATP content of the culture.)

The nature of data set [2]: Pharmacokinetic assay in mice, single oral administration. The conditions noted are these: male, mouse, ICR mice, 10 mg/kg, plasma. The class given is in vivo. Here is the method: The purpose of this trial is to study the pharmacokinetic behavior of some compounds of the present invention, and the administration method is: Single oral administration (PO) to ICR mice:
ICR mice male N=3 original source: Shanghai Sippr-Bk Lab Animal Co., Ltd.
The compounds were weighed and dissolved in 20% PG+10% Solutol HS15+70% pH 3 citrate buffer, respectively, shaken well and sonicated to prepare colorless clear solutions or suspensions. Nine mice were administered orally at a dose of 10 mg/kg after an overnight fast.
About 90 μL of blood was collected via the submandibular vein per time point, heparin sodium anticoagulant was added, the sample was placed on ice after collection, and plasma was centrifuged within 1 hour (centrifugation conditions: 8,000 rpm, 6 minutes, 2-8° C.). The blood collection time points were 0, 0.25, 0.5, 1, 2, 4, 6, 8 and 24 h. The samples were stored in a refrigerator at −20° C.
The plasma sample was 40 μL, 160 μL of ice-cold acetonitrile containing internal standard was added, vortexed for 3 minutes, and centrifuged at 11,000 rpm for 5 minutes. 100 μL of the supernatant was taken and added to 100 μL of water, 5 μL of the sample was taken and injected into LC/MS/MS for analysis (see the table below for the results).
PK Results for Single Oral Administration (PO) of 10 mg/kg of Compounds to Mice

Data set [3] in a line: Liver microsomal stability experiment. The conditions noted are these: pH 7.4; human liver microsomes, NADPH, 37° C., 0-45 min; read-out: Human Liver Microsome Stability Half-Life T1/2. The class given is in vitro ADME. The method, then: Buffer solution A: 1.0 L of 0.1 M potassium dihydrogen phosphate buffer solution (containing 1.0 mM EDTA);
Buffer solution B: 1.0 L of 0.1 M dipotassium phosphate buffer solution (containing 1.0 mM EDTA);
Buffer solution C: Buffer solution A was added to 700 mL of buffer solution B. The addition was stopped when pH reached 7.4.
The selected compounds of the examples and reference standards were dissolved in DMSO to prepare a stock solution of 10 mM.
• 500 μM solution: 10 μL of 10 mM stock solution was added to 190 μL of ACN; • 1.5 μM dosing solution (dissolved in liver microsome solution, human liver microsomes were purchased from Xenotech): 18.75 μL of 20 mg/mL liver microsomes was added to 479.75 μL of buffer solution C, then 1.5 μL of 500 μM solution was added and mixed well with gentle shaking.
NADPH was weighted, then an appropriate amount of buffer solution C was added to prepare a 6 mM of NADPH solution.
• 1. 30 μL of 1.5 μM dosing solution was added to the wells set to different time points (0 min, 5 min, 15 min, 30 min and 45 min) on a 96-well plate. 2 replicates were made. • 2. Preparation of the 0-min sample: 135 μL of ACN (containing internal standard) was first added to the 0-min well, and 15 μL of 6 mM NADPH solution was added. • 3. A 96-well plate containing 1.5 μM of dosing solution and NADPH solution were pre-warmed in a 37° C. water bath for 5 minutes. • 4. Pre-warmed 15 μL of 6 mM NADPH solution was added to the wells set to 5 min, 15 min, 30 min and 45 min, the reaction was started and the timing was started. • 5. […] The solution was vortexed for 10 minutes, and the sample was centrifuged on a centrifuge at 5594×g for 15 minutes. • 6. 50 μL of supernatant was taken from the centrifuged sample, transferred to a 96-well sample plate that has been added with 50 μL of water, mixed, and finally sent to LC-MS/MS for analysis. The half-life was calculated based on the test results.
A general note: Microsomes from liver hold many membrane-bound enzymes, among them those of drug oxidation.

The subject of data set [4] is HCT 116 MTAP wild-type cells. As to the kind of experiment: Human colon cancer HCT116 cell proliferation inhibition test (MTAP wild-type cells, CellTiter-Glo, 6 days). The class given is cell-based. The conditions noted are these: HCT-116, 144 h. The method, then: as §1

For `C#Cc1cc(-c2cnn(C)c2-c2c(F)cc3ccccc3c2C#N)cc2c(CN)n[nH]c(=O)c12` [Example 2, 2-(4-(4-(aminomethyl)-8-ethynyl-1-oxo-1,2-dihydrophthalazin-6-yl)-1-methyl-1H-pyrazol-5-yl)-3-fluoro-1-naphthalenenitrile], the IC50 in data set [1] (Homo sapiens, HCT-116, 144 h) amounted to 9 nM. In data set [2], this compound showed an AUC(0-t) of 1440 ng·h/mL, a Cmax of 378 ng/mL and a half-life of 4 h. The half-life at 1 µM in data set [3] was 0.717 h.
Regarding `Cn1ncc(-c2ccc3c(=O)[nH]nc(CN)c3c2)c1-c1c(F)c(Cl)cc(N2CC(F)(F)C2)c1C#N` [Example 14, 2-(4-(4-(aminomethyl)-1-oxo-1,2-dihydrophthalazin-6-yl)-1-methyl-1H-pyrazol-5-yl)-4-chloro-6-(3,3-difluoroazetidin-1-yl)-3-fluorobenzonitrile], the IC50 turned out to be 14 nM in data set [1] (Homo sapiens, HCT-116, 144 h) and 2360 nM in data set [4].
`Cn1ncc(-c2cc(C3CC3)c3c(=O)[nH]nc(CN)c3c2)c1-c1c(F)cc2ccccc2c1C#N` [Example 3, 2-(4-(4-(aminomethyl)-8-cyclopropyl-1-oxo-1,2-dihydrophthalazin-6-yl)-1-methyl-1H-pyrazol-5-yl)-3-fluoro-1-naphthalenenitrile]: the IC50 in data set [1] (Homo sapiens, HCT-116, 144 h) is 29 nM; in data set [4] it was 1050 nM.
As for `Cn1ncc(-c2cc(C#N)c3c(=O)[nH]nc(CN)c3c2)c1-c1c(F)c(Cl)cc(N2CCCC2)c1C#N` [Example 9, 1-(aminomethyl)-7-(5-(3-chloro-6-cyano-2-fluoro-5-(pyrrolidin-1-yl)phenyl)-1-methyl-1H-pyrazol-4-yl)-4-oxo-3,4-dihydrophthalazine-5-carbonitrile], the midpoint of inhibition in data set [1] (Homo sapiens, HCT-116, 144 h), the IC50, lay at 58 nM. In data set [2], this compound showed an AUC(0-t) of 2230 ng·h/mL, a Cmax of 844 ng/mL and a half-life of 6.9 h. Moreover, the half-life at 1 µM in data set [3] amounted to 0.633 h.
With `COC1CN(c2cc(OC3CC3)c(C#N)c(-c3c(-c4ccc5c(=O)[nH]nc(CN)c5c4)cnn3C)c2F)C1` [Example 23, 2-(4-(4-(aminomethyl)-1-oxo-1,2-dihydrophthalazin-6-yl)-1-methyl-1H-pyrazol-5-yl)-6-cyclopropoxy-3-fluoro-4-(3-methoxyazetidin-1-yl)benzonitrile], the IC50 in data set [1] (Homo sapiens, HCT-116, 144 h) came to 120 nM; in data set [4] it was 3660 nM.
For the compound `Cn1ncc(-c2ccc3c(=O)[nH]nc(CN)c3c2)c1-c1c(F)c(N2CCCC2)cc(OC2CC2)c1C#N` [Example 16, 2-(4-(4-(aminomethyl)-1-oxo-1,2-dihydrophthalazin-6-yl)-1-methyl-1H-pyrazol-5-yl)-6-cyclopropoxy-3-fluoro-4-(pyrrolidin-1-yl)benzonitrile], the IC50 in data set [1] (Homo sapiens, HCT-116, 144 h) amounted to 21 nM; in data set [4], 2540 nM.
On the same counts, the results for `Cn1ncc(-c2ccc3c(=O)[nH]nc(CN)c3c2)c1-c1c(F)c(Cl)cc(N2CC(C)(F)C2)c1C#N` [Example 18, 2-(4-(4-(aminomethyl)-1-oxo-1,2-dihydrophthalazin-6-yl)-1-methyl-1H-pyrazol-5-yl)-4-chloro-3-fluoro-6-(3-fluoro-3-methylazetidin-1-yl)benzonitrile] are 123 nM and 5600 nM.
On the same counts, the results for `Cn1ncc(-c2ccc3c(=O)[nH]nc(CN)c3c2)c1-c1c(F)c(Cl)cc(N2CC3(C2)CC3(F)F)c1C#N` [Example 29, 2-(4-(4-(aminomethyl)-1-oxo-1,2-dihydrophthalazin-6-yl)-1-methyl-1H-pyrazol-5-yl)-4-chloro-6-(1,1-difluoro-5-azaspiro[2.3]hexan-5-yl)-3-fluorobenzonitrile] are 20 nM and 1150 nM.
For `COC1CCN(c2cc(OC3CC3)c(C#N)c(-c3c(-c4ccc5c(=O)[nH]nc(CN)c5c4)cnn3C)c2F)C1` (stereo not shown) [Example 26, 2-(4-(4-(aminomethyl)-1-oxo-1,2-dihydrophthalazin-6-yl)-1-methyl-1H-pyrazol-5-yl)-6-cyclopropoxy-3-fluoro-4-(3-methoxypyrrolidin-1-yl)benzonitrile], in that order: 34 nM and 2490 nM.
Turning to `Cn1ncc(-c2ccc3c(=O)[nH]nc(CN)c3c2)c1-c1c(F)c(Cl)cc(N2CCC(F)(F)C2)c1C#N` [Example 19, 2-(4-(4-(aminomethyl)-1-oxo-1,2-dihydrophthalazin-6-yl)-1-methyl-1H-pyrazol-5-yl)-4-chloro-6-(3,3-difluoropyrrolidin-1-yl)-3-fluorobenzonitrile], the IC50 in data set [1] (Homo sapiens, HCT-116, 144 h) came out at 80 nM; in data set [4] it was 3260 nM.
In data set [1] (Homo sapiens, HCT-116, 144 h), `Cn1ncc(-c2cc(C3CC3)c3c(=O)[nH]nc(CN)c3c2)c1-c1c(F)c(Cl)cc(OC2CC2)c1C#N` [Example 8, 2-(4-(4-(aminomethyl)-8-cyclopropyl-1-oxo-1,2-dihydrophthalazin-6-yl)-1-methyl-1H-pyrazol-5-yl)-4-chloro-6-cyclopropoxy-3-fluorobenzonitrile] gave an IC50 of 18 nM. In data set [2], the AUC(0-t) stood at 2710 ng·h/mL, the peak level (Cmax) was 576 ng/mL and the half-life was 3.2 h. In addition, in data set [3], the half-life at 1 µM is 0.867 h.
On the same counts, the results for `Cn1ncc(-c2cc(C#N)c3c(=O)[nH]nc(CN)c3c2)c1-c1c(F)c(Cl)cc(OC2CC2)c1C#N` [Example 6, 1-(aminomethyl)-7-(5-(3-chloro-6-cyano-5-cyclopropoxy-2-fluorophenyl)-1-methyl-1H-pyrazol-4-yl)-4-oxo-3,4-dihydrophthalazine-5-carbonitrile] are 70 nM, 2900 ng·h/mL, 973 ng/mL, 5.1 h and 2.05 h.
With `Cn1ncc(-c2ccc3c(=O)[nH]nc(CN)c3c2)c1-c1c(F)c(Cl)cc(N2CC(C(F)F)C2)c1C#N` [Example 30, 2-(4-(4-(aminomethyl)-1-oxo-1,2-dihydrophthalazin-6-yl)-1-methyl-1H-pyrazol-5-yl)-4-chloro-6-(3-(difluoromethyl)azetidin-1-yl)-3-fluorobenzonitrile], the IC50 is 44 nM in data set [1] (Homo sapiens, HCT-116, 144 h) and 2660 nM in data set [4].
`Cn1ncc(-c2cc(C#N)c3c(=O)[nH]nc(CN)c3c2)c1-c1c(F)cc2ccccc2c1C#N` (atropisomer, axis not shown; (P)) [Example 4, (P)-1-(aminomethyl)-7-(5-(1-cyano-3-fluoronaphthalen-2-yl)-1-methyl-1H-pyrazol-4-yl)-4-oxo-3,4-dihydrophthalazine-5-carbonitrile] yielded an IC50 in data set [1] of 188 nM.
`Cn1ncc(-c2ccc3c(=O)[nH]nc(CN)c3c2)c1-c1c(F)c(Cl)cc(N2CCC3(CC2)CC3(F)F)c1C#N` [Example 33, 2-(4-(4-(aminomethyl)-1-oxo-1,2-dihydrophthalazin-6-yl)-1-methyl-1H-pyrazol-5-yl)-4-chloro-6-(1,1-difluoro-6-azaspiro[2.5]octan-6-yl)-3-fluorobenzonitrile] returned an IC50 in data set [1] (Homo sapiens, HCT-116, 144 h) of 57 nM.

By IC50 is commonly meant the point on the concentration scale where inhibition reaches its midpoint. A lower IC50 goes with greater potency. Usually AUC(0-t) stands for the area under the concentration-time curve up to a stated or last time point. The low end stands for less exposure, the high end for more exposure. By Cmax is commonly meant the highest concentration seen after dosing.
